Results published in US8058314B2, “Conductance of improperly folded proteins through the secretory pathway and related methods for treating disease” (Yale University, priority 1999, dated 2011).

Experiments:
CFPAC-1 cells = test: Short circuit current (Ussing chamber) of CFPAC-1 monolayers after cAMP stimulation; type: cell-based, human; settings: 1 uM thapsigargin 1.5 hours, 2 hours recovery, 10 uM forskolin and 100 uM IBMX, n=12
Experimental: The cell line is homozygous for expression of ΔF508 CFTR and has the ion transport properties of CF-affected epithelia. CFPAC-1 cells show epithelial morphology and polarization with apical microvilli.
CFPAC cells were grown at 370 in 5% CO2 and maintained in Isocove's modified Dulbucco's medium supplemented with 10% fetal calf serum. Both for measurements of short circuit current and for immunofluorescence experiments, these cells were grown on collagen coated permeable supports (Transwell Snapwell filter cups, Corning Costar, Cambridge, Mass.).
CFPAC-1 or T84 cells were grown on collagen coated permeable supports (Transwell Snapwell filter cups, Corning Costar, Cambridge, Mass.). […]
Ag—AgCl wires were embedded in 3M KCl agar bridges were used as voltage and current electrodes on each side of the monolayer contained in an Ussing chamber system (World Precision Instruments, WPI). Voltage was clamped using an EC-825 voltage clamp amplifier (Warner Instruments) with a digital current and voltage readout. The transepithelial potential difference (Vlc) is continuously recorded. At 5-minute intervals the Vtc is clamped to 0 and the short circuit current (Isc) was determined. […]
After cells were mounted in the Ussing chamber electrical parameters were assessed for 20 to 30 minutes (control period). […] During these maneuvers, electrical parameters were continuously monitored.

[1] = type: in vivo, mice
Experimental: A nebulization chamber was constructed using an 8 quart plastic container with a lid that creates an air tight seal. A ‘T piece nebulizer device’ (Hudson RCI T-up Draft Nebumist Nebulizer) was inserted into the container via an opening located on the side of the chamber. The nebulization device was filled with 5 mls of 1 μM thapsigargin dissolved in physiologic saline solution. The gas source (high pressure air) was attached to the set up to create a flow rate of ≧12 liters per minute. Flow was adjusted to maintain a fine visible mist throughout the chamber. Numerous small ventilation holes were placed at the top of the chamber to ensure the escape of carbon dioxide. The nebulization chamber was kept in a fume hood during the experiments to allow for dispersion of any escaped mist.
Mice or cells were placed into the chamber prior to the onset of nebulization. Mice were observed continuously during the nebulization treatments and observations were documented every 15-30 minutes. Lungs were prepared for histologic analysis according to methods described previously (Courtois-Coutry et al., Cell 90:501-510 (1997)).
To examine this issue, six mice were exposed for 3 to 4 hours per day for 14 days to a nebulized solution of 1 μM thapsigargin in normal saline. […] At the end of the 2 week trial, the animals were sacrificed and 4 were processed for histopathologic examination of the lungs.
Wild type and CF mice were exposed to a humidified atmosphere (produced as described in Example 4) containing 1 μM thapsigargin for 3 hours/day for 7-14 days. […] The night before the NPD procedure was performed, mice were taken off Colyte and given water or alimentum (liquid formula). Wet food was also withheld. These steps were taken to decrease the risk of dehydration and/or intestinal obstruction that occur with sedation and dehydration.

SERCA ATPases = settings: cited from earlier work
[2] = Toxicity test, thapsigargin in drinking water; type: in vivo, mice; settings: drinking water with 1 μM thapsigargin over 3 to 7 days
Experimental: Genetically uniform lab mice were given either normal drinking water (control) or drinking water which contained thapsigargin (1 μM final concentration). The non-control group of mice were given the thapsigargin-treated water over a 3 to 7 day time period.

ΔF508-CFTR = test: Western blot of mature CFTR in CFPAC cells; type: cell-based, human; settings: thapsigargin treatment as in Example 3
Experimental: Materials and Methods. CFPAC cells were grown to confluence in 10 cm^2 plates (Corning Costar, Cambridge, Mass.). Following thapsigargin treatment performed as described in Example 3, cells were harvested by scraping in PBS, lysed by sonication, and a crude membrane pellet was recovered by centrifugation at 50,000×g for 2 hrs. Electrophoresis and Western blotting were performed as described (Gottardi, C. J. and Caplan, M. J., J. Cell. Biol. 121, 283 (1993)). CFTR protein was detected using an antibody directed against the CFTR nucleotide binding domain 1 (Catalog number 05585, clone L12B4) from Upstate Biotechnology (Lake Placid N.Y.).

ΔF508 CFTR [3] = test: Immunofluorescence localization of CFTR in CFBE290− airway epithelial cells; type: cell-based, human
Experimental: (§1) CFPAC and CFBE290^− epithelial cells were grown to confluence on 0.45 micron Transwell filter inserts (Corning Costar, Cambridge, Mass.) under the same conditions described for the short circuit current measurements. Prior to immunofluorescence analysis, filter grown cell monolayers were treated for 90 min with 1 μM thapsigargin at 37° C., present in both the apical and basolateral media compartments. The media was then changed to standard Iscove's growth medium or DMEM without thapsigargin, and cells were incubated for 2 or 4 hours at 37° C. Control cells underwent the same media changes but were not subjected to thapsigargin treatment.
(§2) Following the second incubation, the filter grown monolayers were washed once with phosphate buffered saline supplemented with calcium and magnesium (150 mM NaCl, 10 mM NaPi, pH 7.4, 1 mM MgCl2, 0.1 mM CaCl2), after which they were fixed for 10 minutes in −20° C. 100% methanol. Immunofluorescence labeling was performed using the well characterized 169 and 181 antibodies (gift of W. Guggino, Johns Hopkins University) directed against the R domain and the prenucleotide binding fold of the CFTR protein, respectively (Crawford et al., Proc. Nat. Acad. Sci. 88:9262-9266 (1991)) and a monoclonal antibody directed against the α-subunit of the Na,K-ATPase (Gottardi and Caplan, J. Cell Biol. 121:283-293 (1993)).
Incubations with primary and rhodamine-conjugated secondary antibodies were performed as previously described (Gottardi and Caplan, Id.). Labeled cells were examined using a Zeiss LSM 410 laser scanning confocal microscope. All images are the product of 8-fold line averaging. Contrast and brightness settings were chosen so that all pixels were in the linear range. […]
To ensure that the dose of thapsigargin received by the mice was sufficient to rescue ΔF508-CFTR in airway epithelial cells, we examined the effect of nebulized thapsigargin on CFBE290^− cells. […] Filter-grown CFBE290^− cells were exposed to 1 μM nebulized thapsigargin for 3 hours and the distribution of ΔF508-CFTR was evaluated by immunofluorescence.

ΔF508 CFTR [4] = test: Confocal immunofluorescence localization of CFTR in CFPAC cells; type: cell-based, human
Experimental: as §1, §2
Incubations with primary and rhodamine-conjugated secondary antibodies were performed as previously described (Gottardi and Caplan, Id.). Labeled cells were examined using a Zeiss LSM 410 laser scanning confocal microscope. All images are the product of 8-fold line averaging. Contrast and brightness settings were chosen so that all pixels were in the linear range. YZ cross sections were generated using a 0.2 μmotor step.

[5] = nebulized 1 μM thapsigargin, 14 days, 4 mice examined

## C/C=C(/C)C(=O)O[C@H]1C(C)=C2[C@H]([C@@H]1OC(=O)CCCCCCC)[C@@](C)(OC(C)=O)C[C@H](OC(=O)CCC)[C@@]1(O)[C@H]2OC(=O)[C@@]1(C)O [thapsigargin]
CFPAC-1 cells
  increase in short circuit current after cAMP-stimulation cocktail: 14.6±6.6%
[1]; nebulized 1 μM thapsigargin, 3 to 4 hours per day for 14 days, six mice
  ill effects during or between treatments: no obvious ill effects
[1]; [5]
  cellular architecture of the lungs: completely normal
  peribronchiolar lymphocytes: One of the specimens exhibited a moderate peribronchiolar lymphocytic infiltration
[1]; nebulized 1 microM thapsigargin or 50 microM curcumin, 3 hours/day for 7-14 days
  morbidity under treatment: without exhibiting any obvious morbidity
SERCA ATPases; Christensen et al.
  reduction of efficacy as calcium pump inhibitor on loss of the ester groups: at least 40 fold
SERCA ATPases
  potency of SERCA inhibition: subnanomolar
[2]
  deaths, illnesses or side effects: no deaths, illnesses or side effects
ΔF508-CFTR
  mature CFTR in lysates: contained the ˜170 kDa mature form of the ΔF508CFTR protein
ΔF508 CFTR [3]; 1 μM nebulized thapsigargin for 3 hours, air-liquid interface
  distribution of ΔF508-CFTR: dramatic redistribution of ΔF508-CFTR to the apical plasmalemma
ΔF508 CFTR [3]; agent dissolved in media
  ΔF508-CFTR surface delivery: present to the same extent at the apical surfaces of cells treated with nebulized or dissolved thapsigargin
ΔF508 CFTR [4]; 1 μM thapsigargin 90 min, en face and XZ cross section
  CFTR staining pattern: bright labeling of apical microvilli could be detected in most of the cells
ΔF508 CFTR [4]; 10 mm cycloheximide during treatment and chase, cell line not stated, data not shown
  thapsigargin effect on ΔF508-CFTR surface appearance with protein synthesis blocked: did not abrogate the thapsigargin effect
ΔF508 CFTR [4]; 2 hours after 1 μM thapsigargin 90 min
  CFTR staining pattern: exhibited only apical staining
ΔF508 CFTR [4]; 4 hours after 1 μM thapsigargin 90 min, data not shown
  CFTR staining pattern: CFTR staining both at the apical membrane and in the ER
ΔF508 CFTR [4]; cell line not stated, data not shown
  thapsigargin-induced delivery of ΔF508-CFTR to the cell surface in BAPTA-preloaded cells: did not inhibit the thapsigargin-induced delivery of ΔF508-CFTR to the cell surface
